{"source": "patent US20120253036A1", "about": "“AGENT FOR TREATING FIBROMYALGIA” (priority 2009, published 2012)", "key": {"[1]": {"test_system": "patients with fibromyalgia", "settings": "cited from earlier work; for score of pain symptoms of patients with fibromyalgia compared to a placebo group: Non-Patent Documents 7 to 9; for effectiveness for treating patients with fibromyalgia: literature (Yunus 1989; Goldenberg 1986)"}, "[2]": {"test_system": "disease animal model of fibromyalgia", "assay": "Effect of test drug on lowering of muscle tenderness threshold induced by repeated reserpine administration", "type": "in vivo, Sprague-Dawley rats", "settings": "for statistical significance of the effect on muscle tenderness threshold vs vehicle: two way ANOVA and Bonferroni; for effect on the lowering of the muscle tenderness threshold induced by reserpine: male rats", "protocol": "(§1) The muscle tenderness threshold was measured according to the method of Schafers et al (Schafers M et al, Pain, 104, 579-588, 2003). A pressure stimulus gradually increasing up to 250 g was applied to the gastrocnemius of the right rear foot of the rat. […] The measurement was performed for three times for each point in time, and the average thereof was taken as a measured value. The cutaneous nociception threshold was measured according to the method of Chaplan et al (Chaplan et al., J Neurosci Methods, 53, 55-63, 1994). The measurement was performed using a series of von Frey filaments differing in thickness, which made it possible to apply a constant pressure. The rats were adapted to a cage for measurement having a wire mesh bottom, and then von Frey filaments (0.42 g, 0.74 g, 1.2 g, 2.1 g, 3.5 g, 6.0 g, 9.3 g, and 15.8 g) were applied to the plantar surface of a right rear foot of the rat until the withdrawal response was caused in the right rear foot or until 6 seconds elapsed without the response. The von Frey filament was applied using an up and down method. That is, a filament having about a medium thickness was applied initially, and when the withdrawal response was observed, a filament having a thickness which is one level lower than the initial filament was applied, and when the response was not observed, a filament having a thickness which is one level higher than the initial filament was applied. The cutaneous nociception threshold at the respective points in time was calculated as a threshold (g) of a foot withdrawal response by using a calculation formula reported by Chaplan et al (Chaplan et al. described above). The influence of reserpine on the muscle tenderness threshold and the threshold of cutaneous nociception was examined according to the following protocol. 24 rats were used for male and female rats respectively. The muscle tenderness threshold and the cutaneous nociception threshold before the reserpine administration (base line) were measured, and then the rats were assigned to any of a vehicle (0.5% aqueous acetic acid) group, a 0.1 mg/kg reserpine group, a 0.3 mg/kg group, and a 1 mg/kg group based on the dose of reserpine (6 rats per group). A vehicle or reserpine was subcutaneously administered to the back of rats of the respective groups once a day for three days. The volume of the vehicle or reserpine was set to 1 ml per a weight of a rat of 1 kg for all groups. On the first, third, fifth, seventh, tenth, fourteenth, and twenty-first days after the final administration of the vehicle or reserpine, the muscle tenderness threshold and the cutaneous nociception threshold were measured for the respective rats.\nMale Sprague-Dawley rats (Japan SLC, Hamamatsu, Japan) were used. Thirty rats were used for each drug. As shown in Reference Example 1, reserpine was repeatedly administered at 1 mg/kg once a day for 3 days for 24 rats, thereby causing the lowering of the muscle tenderness threshold and the cutaneous nociception threshold. The other 6 rats were not administered with reserpine and provided for the experiment as a healthy control.\nThe drug efficacy was evaluated 5 days after the final administration of reserpine for all groups.\nIn evaluating the respective test drugs (5-HT2C receptor agonists), the muscle tenderness threshold of the rats (24 reserpine-administered rats and 6 healthy rats) before the administration of the test drug was initially measured. The 24 reserpine-administered rats were assigned to 4 groups according to the dose of the test drug. For YM348 or a vehicle thereof, the muscle tenderness threshold was measured 30, 60, and 120 minutes after the administration. For lorcaserin or a vehicle thereof, the muscle tenderness threshold was measured 60, 120, and 240 minutes after the administration. For vabicaserin or a vehicle thereof, the muscle tenderness threshold was measured 30, 60, 120, and 240 minutes after the administration. […]"}, "[3]": {"test_system": "disease animal model of fibromyalgia", "assay": "Antagonism by 5-HT2C receptor antagonist SB242084 of the action of lorcaserin on reserpine-lowered muscle tenderness threshold", "type": "in vivo, Sprague-Dawley rats", "method": "Thirty male Sprague-Dawley rats (Japan SLC) were used. […] The other 6 rats were not administered with reserpine and provided for the experiment as a healthy control. The drug efficacy was evaluated 5 days after the final administration of reserpine.\nTwenty four reserpine-administered rats were divided into four groups (n=6/group), and the drug was administered to the respective groups in the following manner.\nGroup 1: 10% β cyclodextrin (vehicle of SB242084)+distilled water (vehicle of lorcaserin)\nGroup 2: 10% β cyclodextrin+lorcaserin at 3 mg/kg\nGroup 3: SB242084 at 0.1 mg/kg+lorcaserin at 3 mg/kg\nGroup 4: SB242084 at 1 mg/kg+lorcaserin at 3 mg/kg SB242084 or the vehicle thereof was administered by intraperitoneal administration, and lorcaserin or the vehicle thereof was orally administered. […] The muscle tenderness threshold was measured 60 minutes after lorcaserin or the vehicle thereof was administered. For the 6 healthy rats, only the muscle tenderness threshold was measured without administering the drug.\nAll measured values were indicated as an average±standard error. […] A significance level (P) less than 5% was determined as statistical significance (P<0.001 was indicated as ### in the drawing). […] A significance level (P) less than 5% was determined as statistical significance (P<0.001 was indicated as *** in the drawing)."}, "[4]": {"test_system": "disease animal model of fibromyalgia", "assay": "Effect of drug on reserpine-induced lowering of cutaneous nociception threshold", "type": "in vivo, Sprague-Dawley rats", "settings": "5 days after final reserpine; up to a dose of 10 mg/kg", "method": "The cutaneous nociception threshold was measured according to the method of Chaplan et al (Chaplan et al., J Neurosci Methods, 53, 55-63, 1994). The measurement was performed using a series of von Frey filaments differing in thickness, which made it possible to apply a constant pressure. The rats were adapted to a cage for measurement having a wire mesh bottom, and then von Frey filaments (0.42 g, 0.74 g, 1.2 g, 2.1 g, 3.5 g, 6.0 g, 9.3 g, and 15.8 g) were applied to the plantar surface of a right rear foot of the rat until the withdrawal response was caused in the right rear foot or until 6 seconds elapsed without the response. The von Frey filament was applied using an up and down method. […] The cutaneous nociception threshold at the respective points in time was calculated as a threshold (g) of a foot withdrawal response by using a calculation formula reported by Chaplan et al (Chaplan et al. described above).\nIn addition, 5 days after the final administration of reserpine, the effect of diclofenac which is a non-steroidal anti-inflammatory drug on the reserpine-induced lowering of the muscle tenderness threshold and the lowering of cutaneous nociception threshold was measured."}, "Male Sprague-Dawley rats": {"test_system": "Male Sprague-Dawley rats", "assay": "Forced swimming test after repeated reserpine administration (immobility time)", "type": "in vivo", "settings": "1 mg/kg s.c. once a day for 3 days", "protocol": "Male Sprague-Dawley rats (7-week old, Japan SLC, Hamamatsu, Japan) were used as animals. A forced swimming test was performed by modifying the method of Porsolt (1977) et al in the following manner. Soft wires including a magnet (a diameter of 1 mm and a length of 3 mm) were mounted on both the forelimbs of the animal, and the animals were caused to swim one by one in a cylindrical plastic water tank (a diameter of 20 cm and a height of 45 cm) filled with water (24±1° C.) up to 30 cm depth. […] Each forced swimming test includes a pretest session (15 minutes of swimming) and a test session (5 minutes of swimming) 24 hours after the pretest session, and the immobility time was measured in the test session. […] All of the measured values were indicated as an average±standard error. The statistical significant difference in the measured value at the respective test schedules between the reserpine-administered group and the vehicle-administered group was verified by a Student's t-test. A significance level (P) less than 5% was determined as statistical significance (P<0.05 was indicated as * in the drawings)."}, "[5]": {"test_system": "Male and female Sprague-Dawley rats", "assay": "Influence of repeated reserpine administration on cutaneous nociception threshold (von Frey)", "type": "in vivo", "settings": "for time after final administration for which cutaneous nociception threshold was statistically significantly lower than vehicle: 1 mg/kg group", "protocol": "(§2) Male and female Sprague-Dawley rats (Japan SLC, Hamamatsu, Japan) were used.\nas §1, with “The influence of reserpine on the muscle tenderness threshold and the threshold of cutaneous nociception was examined according to the following protocol. 24 rats were used for male and female rats respectively.” left out, “A vehicle or reserpine was subcutaneously administered to the back of rats of the respective groups once a day for three days. The volume of the vehicle or reserpine was set to 1 ml per a weight of a rat of 1 kg for all groups.” left out\n(§3) All measured values were indicated as an average±standard error. The statistical significant difference in the measured value at the respective points in time between the reserpine-administered group and the vehicle-administered group was verified by two way ANOVA and a Bonferroni method. A significance level (P) less than 5% was determined as statistical significance (P<0.05 was indicated as * in the drawings)."}, "[6]": {"test_system": "Male and female Sprague-Dawley rats", "assay": "Influence of repeated reserpine administration on muscle tenderness threshold", "type": "in vivo", "settings": "for time after final administration for which muscle tenderness threshold was statistically significantly lower than vehicle: 1 mg/kg group", "protocol": "as §2\nas §1, with “The influence of reserpine on the muscle tenderness threshold and the threshold of cutaneous nociception was examined according to the following protocol. 24 rats were used for male and female rats respectively.” left out, “A vehicle or reserpine was subcutaneously administered to the back of rats of the respective groups once a day for three days. The volume of the vehicle or reserpine was set to 1 ml per a weight of a rat of 1 kg for all groups.” left out\nas §3"}, "[7]": {"settings": "0.1, 0.3, 1 mg/kg s.c. once a day for three days, male and female rats, two way ANOVA"}}, "data": [{"smiles": "CNCC[C@H](Oc1cccc2ccccc12)c1cccs1", "note": "[duloxetine]", "values": [{"measurement": "score of pain symptoms of patients with fibromyalgia compared to a placebo group", "setting": "[1]", "value": "statistically significantly reduces the score of pain symptoms"}]}, {"smiles": "Cl.c1cc2c3c(c1)[C@H]1CCC[C@H]1CN3CCNC2", "note": "[vabicaserin, (−)-(9aR,12aS)-4,5,6,7,9,9a,10,11,12,12a-decahydrocyclopenta[c][1,4]diazepino[6,7,1-ij]quinoline]", "values": [{"measurement": "statistical significance of the effect on muscle tenderness threshold vs vehicle", "setting": "[2]; dorsal subcutaneous, at a dose of 1 mg/kg or 3 mg/kg", "value": "statistically significant"}, {"measurement": "effect on the lowering of the muscle tenderness threshold induced by reserpine", "setting": "[2]; 5 days after final reserpine, dorsal subcutaneous 0.3, 1, 3 mg/kg, 30, 60, 120, 240 min after administration", "value": "restored the lowering of the muscle tenderness threshold induced by reserpine in a dose dependent manner"}]}, {"smiles": "C[C@H]1CNCCc2ccc(Cl)cc21.Cl", "note": "[lorcaserin, (1R)-8-chloro-1-methyl-2,3,4,5-tetrahydro-1H-3-benzazepine]", "values": [{"measurement": "effect on the lowering of the muscle tenderness threshold induced by reserpine vs vehicle group (v+v)", "setting": "[3]; lorcaserin 3 mg/kg oral + 10% β cyclodextrin i.p., 60 min after administration, Student's t-test", "value": "statistically significantly restored the lowering of the muscle tenderness threshold induced by reserpine"}, {"measurement": "effect on the lowering of the muscle tenderness threshold induced by reserpine", "setting": "[2]; 5 days after final reserpine, oral 0.3, 1, 3 mg/kg, 60, 120, 240 min after administration", "value": "restored the lowering of the muscle tenderness threshold induced by reserpine in a dose dependent manner"}, {"measurement": "statistical significance of the effect on muscle tenderness threshold vs vehicle", "setting": "[2]; oral, at a dose of 1 mg/kg or 3 mg/kg", "value": "statistically significant"}]}, {"smiles": "O=C(O)Cc1ccccc1Nc1c(Cl)cccc1Cl", "note": "[diclofenac]", "values": [{"measurement": "effect on the reserpine-induced lowering of the muscle tenderness threshold", "setting": "[2]; 5 days after final reserpine, up to a dose of 10 mg/kg", "value": "not restored"}, {"measurement": "effect on the reserpine-induced lowering of cutaneous nociception threshold", "setting": "[4]", "value": "not restored"}]}, {"smiles": "CC(C)C[C@H](CN)CC(=O)O", "note": "[pregabalin]", "values": [{"measurement": "score of pain symptoms of patients with fibromyalgia compared to a placebo group", "setting": "[1]", "value": "statistically significantly reduces the score of pain symptoms"}]}, {"smiles": "COc1ccc2cc([C@H](C)C(=O)O)ccc2c1", "note": "[naproxen]", "values": [{"measurement": "effectiveness for treating patients with fibromyalgia", "setting": "[1]", "value": "not significantly effective"}]}, {"smiles": "CCc1cc2c(ccc3cnn(C[C@H](C)N)c32)o1", "note": "[YM348, (S)-2-(7-ethyl-1H-furo[2,3-g]indazol-1-yl)-1-methylethylamine]", "values": [{"measurement": "effect on the lowering of the muscle tenderness threshold induced by reserpine", "setting": "[2]; 5 days after final reserpine (1 mg/kg s.c. x3 days), oral 0.03, 0.1, 0.3 mg/kg, 30, 60, 120 min after administration", "value": "restored the lowering of the muscle tenderness threshold induced by reserpine in a dose dependent manner"}, {"measurement": "statistical significance of the effect on muscle tenderness threshold vs vehicle", "setting": "[2]; oral, at a dose of 0.1 mg/kg or 0.3 mg/kg", "value": "statistically significant"}]}, {"smiles": "COC(=O)[C@H]1[C@H]2C[C@@H]3c4[nH]c5cc(OC)ccc5c4CCN3C[C@H]2C[C@@H](OC(=O)c2cc(OC)c(OC)c(OC)c2)[C@@H]1OC", "note": "[reserpine]", "values": [{"measurement": "increase in the immobility time in forced swimming test", "setting": "Male Sprague-Dawley rats; first day after final administration (P=0.625)", "value": "not confirmed"}, {"measurement": "increase in the immobility time in forced swimming test", "setting": "Male Sprague-Dawley rats; third, fifth, seventh and fourteenth days after final administration (P=0.0007, 0.004, <0.0001, 0.0008)", "value": "significant increase in the immobility time"}, {"measurement": "time after final administration for which cutaneous nociception threshold was statistically significantly lower than vehicle", "setting": "[5]; female rats", "value": 14, "unit": "days"}, {"measurement": "time after final administration for which cutaneous nociception threshold was statistically significantly lower than vehicle", "setting": "[5]; male rats", "value": 21, "unit": "days"}, {"measurement": "influence on cutaneous nociception threshold", "setting": "[5]; 1 mg/kg reserpine group", "value": "markedly lowered"}, {"measurement": "influence on cutaneous nociception threshold", "setting": "[5]; [7]", "value": "significantly lowered the cutaneous nociception threshold"}, {"measurement": "time after final administration for which muscle tenderness threshold was statistically significantly lower than vehicle", "setting": "[6]; female rats", "value": 7, "unit": "days"}, {"measurement": "time after final administration for which muscle tenderness threshold was statistically significantly lower than vehicle", "setting": "[6]; male rats", "value": 10, "unit": "days"}, {"measurement": "influence on muscle tenderness threshold", "setting": "[6]; 1 mg/kg reserpine group", "value": "markedly lowered"}, {"measurement": "influence on muscle tenderness threshold", "setting": "[6]; [7]", "value": "significantly lowered the muscle tenderness threshold"}]}, {"smiles": "CC(C)Cc1ccc(C(C)C(=O)O)cc1", "note": "(stereo not drawn) [ibuprofen]", "values": [{"measurement": "effectiveness for treating patients with fibromyalgia", "setting": "[1]", "value": "not significantly effective"}]}, {"smiles": "Cc1cc2c(cc1Cl)N(C(=O)Nc1ccc(Oc3cccnc3C)nc1)CC2", "note": "[SB242084]", "values": [{"measurement": "antagonistic action against the action of lorcaserin on muscle tenderness threshold", "setting": "[3]; SB242084 0.1 and 1 mg/kg i.p. 15 min before lorcaserin 3 mg/kg oral, 60 min, Dunnett's test", "value": "statistically significant antagonistic action in a dose dependent manner"}]}]}
